Measured values: patent US6355799B1, “Substituted benzene compounds, process for their preparation, and herbicidal and defoliant compositions containing them” (ISK Americas Incorporated, priority 1997, dated 2002)

Columns and labels:
Format in all cases: in vivo
[1] = system: ivyleaf morningglory (Ipomoea hederacea, IPOHE); assay: Post-emerge test, greenhouse herbicide activity screening; details: post-emerge, 14 days after application, rating scale 0-100
In short: (§1)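 Compounds in acetone were track-sprayed at 15-1000 g ai/ha (187 l/ha) on sandy loam pots: pre-emerge one day after seeding, post-emerge at 2-3 leaf stage with 0.25% v/v non-ionic surfactant. Phytotoxicity was rated 14 days later on a 0 (no damage) to 100 (complete death) scale.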

[2] = system: sicklepod (Cassia obtusifolia, CASOB); assay: as above; details: post-emerge, 14 days after application, rating scale 0-100
In short: as §1

[3] = system: velvetleaf (Abutilon theophrasti, ABUTH); assay: as above; details: post-emerge, 14 days after application, rating scale 0-100
In short: as §1

[4] = system: green foxtail (Setaria viridis, SETVI); assay: as above; details: post-emerge, 14 days after application, rating scale 0-100
In short: as §1

[5] = system: large crabgrass (Digitaria sanguinalis, DIGSA); assay: as above; details: post-emerge, 14 days after application, rating scale 0-100
In short: as §1

[6] = system: lambsquarters (Chenopodium album, CHEAL); assay: as above; details: post-emerge, 14 days after application, rating scale 0-100
In short: as §1

[7] = system: johnsongrass (Sorghum halepense, SORHA); assay: as above; details: post-emerge, 14 days after application, rating scale 0-100
In short: as §1

[8] = system: barnyardgrass (Echinochloa crus-galli, ECHCG); assay: as above; details: post-emerge, 14 days after application, rating scale 0-100
In short: as §1

[9] = system: redroot pigweed (Amaranthus retroflexus, AMARE); assay: as above; details: post-emerge, 14 days after application
In short: as §1

[10] = system: common ragweed (Ambrosia artemisizfolia L., AMBEL); assay: Pre-emerge test, greenhouse herbicide activity screening; details: pre-emerge, 14 days after application, rating scale 0-100
In short: (§2)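 Rating: 0–100 visual injury, 14 DAA. Application: acetone, 187 l/ha, 15–1000 g ai/ha, flat-fan track sprayer with nozzle 40–45 cm above soil or canopy. Post-emerge runs used 0.25% v/v surfactant on 2–3 leaf plants.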

[11] = system: ivyleaf morningglory (Ipomoea hederacea, IPOHE); assay: as above; details: pre-emerge, 14 days after application, rating scale 0-100
In short: as §2

[12] = system: sicklepod (Cassia obtusifolia, CASOB); assay: as above; details: pre-emerge, 14 days after application, rating scale 0-100
In short: as §2

[13] = system: velvetleaf (Abutilon theophrasti, ABUTH); assay: as above; details: pre-emerge, 14 days after application, rating scale 0-100
In short: as §2

[14] = system: green foxtail (Setaria viridis, SETVI); assay: as above; details: pre-emerge, 14 days after application, rating scale 0-100
In short: as §2

[15] = system: large crabgrass (Digitaria sanguinalis, DIGSA); assay: as above; details: pre-emerge, 14 days after application, rating scale 0-100
In short: as §2

[16] = system: lambsquarters (Chenopodium album, CHEAL); assay: as above; details: pre-emerge, 14 days after application, rating scale 0-100
In short: as §2

[17] = system: johnsongrass (Sorghum halepense, SORHA); assay: as above; details: pre-emerge, 14 days after application, rating scale 0-100
In short: as §2

[18] = system: barnyardgrass (Echinochloa crus-galli, ECHCG); assay: as above; details: pre-emerge, 14 days after application, rating scale 0-100
In short: as §2

[19] = system: field corn (Zea mays L., var. Dekalb 535, CORN); assay: Post-emerge test, crop safety; details: post-emerge, 14 days after application, rating scale 0-100
In short: (§3)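 Plants grown in 10 cm pots of sandy loam mix received acetone-dissolved compounds through a moving flat-fan nozzle. Doses ranged from 15 to 1000 g ai/ha. Pre-emerge pots were seeded one day earlier, post-emerge pots 8–21 days earlier. Fourteen days on, each pot was graded 0–100 for damage.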

[20] = system: upland rice (Oryza sp., var. Tebonnet, RICE); assay: Post-emerge test, crop safety; details: post-emerge, 14 days after application, rating scale 0-100
In short: as §3

[21] = system: redroot pigweed (Amaranthus retroflexus, AMARE); assay: Pre-emerge test, greenhouse herbicide activity screening; details: pre-emerge, 14 days after application, rating scale 0-100
In short: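 Visual ratings on a 0-100 scale (0 no damage, 100 all plants dead) were taken at 14 days after treatment. Rates of 15-1000 g ai/ha in acetone, 187 l/ha, were sprayed onto soil one day after planting (pre-emerge) or onto 2-3 leaf plants with 0.25% v/v surfactant (post-emerge).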

[22] = system: field corn (Zea mays L., var. Dekalb 535, CORN); assay: Pre-emerge test, crop safety; details: pre-emerge, 14 days after application, rating scale 0-100
In short: (§4)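 Applied at 15–1000 g ai/ha from acetone in 187 l/ha spray volume. Post-emergence applications included 0.25% v/v non-ionic surfactant and reached plants sown 8–21 days before. Pre-emergence applications were incorporated by surface watering. Efficacy or crop damage was rated on a 0–100 scale after 14 days.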

[23] = system: upland rice (Oryza sp., var. Tebonnet, RICE); assay: Pre-emerge test, crop safety; details: pre-emerge, 14 days after application, rating scale 0-100
In short: as §4

`CCOC(=O)C(Cl)Cc1c(OC)c(Cl)cc(F)c1-n1nc(C(F)(F)F)n(C)c1=O` (stereo not shown) [14-61] was tested, and the “Post-emerge Herbicidal Activity IPOHE (phytotoxicity rating)” value ([1]; 63 g ai/ha) was 20, the “Post-emerge Herbicidal Activity IPOHE (phytotoxicity rating)” value ([1]; 250 g ai/ha) was 50 and the “Post-emerge Herbicidal Activity CASOB (phytotoxicity rating)” value ([2]; 63 g ai/ha) was 0. For the same compound, the “Post-emerge Herbicidal Activity CASOB (phytotoxicity rating)” value ([2]; 250 g ai/ha) was 30, the “Post-emerge Herbicidal Activity ABUTH (phytotoxicity rating)” value ([3]; 63 g ai/ha) was 30 and the “Post-emerge Herbicidal Activity ABUTH (phytotoxicity rating)” value ([3]; 250 g ai/ha) was 60. The “Post-emerge Herbicidal Activity SETVI (phytotoxicity rating)” value ([4]; 63 g ai/ha) was 0, the “Post-emerge Herbicidal Activity SETVI (phytotoxicity rating)” value ([4]; 250 g ai/ha) was 20 and the “Post-emerge Herbicidal Activity DIGSA (phytotoxicity rating)” value ([5]; 63 g ai/ha) was 0. The “Post-emerge Herbicidal Activity DIGSA (phytotoxicity rating)” value ([5]; 250 g ai/ha) was 70, the “Post-emerge Herbicidal Activity CHEAL (phytotoxicity rating)” value ([6]; 63 g ai/ha) was 40 and the “Post-emerge Herbicidal Activity CHEAL (phytotoxicity rating)” value ([6]; 250 g ai/ha) was 75. For the same compound, the “Post-emerge Herbicidal Activity SORHA (phytotoxicity rating)” value ([7]; 63 g ai/ha) was 0, the “Post-emerge Herbicidal Activity SORHA (phytotoxicity rating)” value ([7]; 250 g ai/ha) was 20 and the “Post-emerge Herbicidal Activity ECHCG (phytotoxicity rating)” value ([8]; 63 g ai/ha) was 0. The “Post-emerge Herbicidal Activity ECHCG (phytotoxicity rating)” value ([8]; 250 g ai/ha) was 60, the “Post-emerge Herbicidal Activity AMARE (phytotoxicity rating)” value ([9]; 63 g ai/ha, rating scale 0-100 (0 no damage, 100 complete death)) was 20 and the “Post-emerge Herbicidal Activity AMARE (phytotoxicity rating)” value ([9]; 250 g ai/ha, rating scale 0-100) was 60. For the same compound, the “phytotoxicity rating AMBEL” value ([10]; 63 g ai/ha) was 0, the “phytotoxicity rating AMBEL” value ([10]; 250 g ai/ha) was 0 and the “phytotoxicity rating IPOHE” value ([11]; 63 g ai/ha) was 0. The “phytotoxicity rating IPOHE” value ([11]; 250 g ai/ha) was 20, the “phytotoxicity rating CASOB” value ([12]; 63 g ai/ha) was 0 and the “phytotoxicity rating CASOB” value ([12]; 250 g ai/ha) was 0. For the same compound, the “phytotoxicity rating ABUTH” value ([13]; 63 g ai/ha) was 0, the “phytotoxicity rating ABUTH” value ([13]; 250 g ai/ha) was 40 and the “phytotoxicity rating SETVI” value ([14]; 63 g ai/ha) was 0. The “phytotoxicity rating SETVI” value ([14]; 250 g ai/ha) was 60, the “phytotoxicity rating DIGSA” value ([15]; 63 g ai/ha) was 0 and the “phytotoxicity rating DIGSA” value ([15]; 250 g ai/ha) was 40. The “phytotoxicity rating CHEAL” value ([16]; 63 g ai/ha) was 0, the “phytotoxicity rating CHEAL” value ([16]; 250 g ai/ha) was 80 and the “phytotoxicity rating SORHA” value ([17]; 63 g ai/ha) was 0. For the same compound, the “phytotoxicity rating SORHA” value ([17]; 250 g ai/ha) was 20, the “phytotoxicity rating ECHCG” value ([18]; 63 g ai/ha) was 0 and the “phytotoxicity rating ECHCG” value ([18]; 250 g ai/ha) was 0. The “Post-emerge Herbicidal Activity CORN (crop damage rating)” value ([19]; 63 g ai/ha) was 0, the “Post-emerge Herbicidal Activity CORN (crop damage rating)” value ([19]; 250 g ai/ha) was 70 and the “Post-emerge Herbicidal Activity RICE (crop damage rating)” value ([20]; 63 g ai/ha) was 0. The “Post-emerge Herbicidal Activity RICE (crop damage rating)” value ([20]; 250 g ai/ha) was 30, the “phytotoxicity rating AMARE” value ([21]; 63 g ai/ha) was 30 and the “phytotoxicity rating AMARE” value ([21]; 250 g ai/ha) was 95. For the same compound, the “phytotoxicity rating CORN” value ([22]; 63 g ai/ha) was 0, the “phytotoxicity rating CORN” value ([22]; 250 g ai/ha) was 0 and the “phytotoxicity rating RICE” value ([23]; 63 g ai/ha) was 0. The “phytotoxicity rating RICE” value ([23]; 250 g ai/ha) was 0.
